Results published in US6303591A, “21-hydroxy-6,19-oxidoprogesterone (21OH-6OP) and its use as medicament for treating excess of glucocorticoids” (Applied Research Systems ARS Holding NV, priority 1997, dated 2001).
Entries after “also recorded” stand apart in the source; their conditions may differ.

What was measured:
liver glycogen = liver glycogen deposition in vivo, adrenalectomized rats; design: species or system rat; conditions: 100 μg steroid/100 g body weight; for liver glycogen deposits: compared to ADX controls
Procedure: (§1) FIG. 3: Biological Properties of 21OH-6OP: A) Glycogen storage in vivo: 100 μg steroid/100 g body weight of male rats were injected as indicated in Example 1. Liver glycogen was purified and quantified with Krisman's reagent (17). Controls were injected with vehicle. Results are expressed as means±SEM (n=6). (*): different from controls P<0.02. B) TAT induction in vitro: rat hepatocytes were incubated for 5 h in HAM-F12 medium in the presence of 100 nM steroid and TAT activity was measured. Results are expressed as percentage of enzyme activity (means±SEM, n=4) over controls incubated in the presence of vehicle. (*) different from controls P<0.01. C) Sodium-retaining activity: adrenalectomized rats were treated with the indicated dose of steroids. Results are expressed as the ratio of sodium-excretion rates of steroid-injected animals to the excretion rates of rats injected with vehicle.
(§2) Bioassay : Liver glycogen deposition was measured on adrenalectoniized male Sprague-Dawley rats (180-220 g) as follows: steroids were dissolved in ethanol/propylene glycol/0.9% NaCl solution (3:3:34) and 100 μg steroid/l00 g body weight were injected i.m. the previous night. On the morning of the experiment this dose was reinjected intraperitoneally. Three hours later the rats were killed by cervical dislocation and livers were immediately removed. Glycogen purification and quantification were carried out according to Krisman's method (17). Na^+ -retaining properties were measured as described (5). Tyrosine aminotransferase (TAT) was induced in rat hepatocytes isolated by the procedure of Fry et al (18). TAT activity was determined according to Granner and Tomkins (19).

[1] = tested on: TAT induction in hepatocytes (GR); assay: antagonism of TAT induction by DXM or B in hepatocytes; type: cell-based, rat; conditions: 2.5 μM steroid
Procedure: (§3) Hatched bars represent incubations performed in the presence of vehicle instead of agonist.
as §2
(§4) The basal TAT activity in hepatocytes, denominated control in the figure, was measured by adding vehicle (final concentration: 0.2% ethanol) to the culture. […] 2.5 μM 21OH-6OP inhibits 80% of TAT induction when concubated with B or DXM.

[2] = tested on: tyrosine aminotransferase (TAT) induction in rat hepatocytes; assay: TAT induction in rat hepatocytes (agonism); type: cell-based; conditions: for increase of TAT activity: 100 nM steroid, rat hepatocytes
Procedure: as §1, §3, §2, §4

[3] = tested on: Na^+ retention (sodium-excretion rate); assay: Na^+ -retaining activity, adrenalectomized rats; type: in vivo, rat
Procedure: as §1, §2

[4] = tested on: Na^+ retention (sodium-excretion rate); conditions: earlier study, ref (5); cited from earlier work
type II sites (GR) = biological target: T1, type II sites (GR) (Rattus norvegicus, UniProt P06536); assay: tracer binding (Scatchard) to kidney type II sites (GR); conditions: no competitor
T1 construct: type II receptors in kidney cytosols; from tissue; host or cells: kidney cytosol, adrenalectomized male Sprague-Dawley rats
T1 sequence (P06536 1-795): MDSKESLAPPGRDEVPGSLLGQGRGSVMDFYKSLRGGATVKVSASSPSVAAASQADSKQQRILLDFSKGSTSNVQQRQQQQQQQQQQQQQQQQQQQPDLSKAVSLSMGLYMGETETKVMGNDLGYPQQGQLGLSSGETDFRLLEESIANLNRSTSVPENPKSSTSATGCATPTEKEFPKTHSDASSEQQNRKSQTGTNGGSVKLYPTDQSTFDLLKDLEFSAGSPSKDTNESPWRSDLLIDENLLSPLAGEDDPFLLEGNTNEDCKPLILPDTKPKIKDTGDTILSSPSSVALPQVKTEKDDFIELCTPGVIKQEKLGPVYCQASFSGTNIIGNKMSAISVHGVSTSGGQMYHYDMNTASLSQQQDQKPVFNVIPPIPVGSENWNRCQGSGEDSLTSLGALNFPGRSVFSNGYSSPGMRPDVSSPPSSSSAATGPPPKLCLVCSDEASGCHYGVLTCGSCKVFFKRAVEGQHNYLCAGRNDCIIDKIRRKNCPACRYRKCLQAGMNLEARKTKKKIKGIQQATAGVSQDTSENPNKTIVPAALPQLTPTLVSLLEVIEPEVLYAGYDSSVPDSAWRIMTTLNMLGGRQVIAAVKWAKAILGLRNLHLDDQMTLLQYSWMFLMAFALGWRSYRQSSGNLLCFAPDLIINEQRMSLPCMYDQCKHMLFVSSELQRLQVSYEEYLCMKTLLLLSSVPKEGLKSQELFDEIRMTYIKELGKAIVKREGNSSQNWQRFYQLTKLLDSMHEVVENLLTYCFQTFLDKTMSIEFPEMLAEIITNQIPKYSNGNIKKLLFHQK
Procedure: (§5) Binding Assay: Adrenalectomized male Sprague-Dawley rats were bled to death by heart puncture. Cold 0.9% NaCI was injected profusely through the aorta until organs were completely blanched. Thymuses were used as a source of GR and kidneys as a source of MR. Homogenization and incubation conditions were performed as previously described, (14) and (15), respectively. Briefly, homogenates performed in cold TEGM buffer at pH 7.4 (0.1 M Tris-HCl, 10 mM EDTA, 10 mM α-mercaptoethanol, 20 mM Na2 MoO4, 25% glycerol, 0.1 mM PMSF, 2.0 TIU/ml aprotinin and 1 mg% Leupeptin) were centrifuged at 37,000 rev. for 30 min at 0° C. Supernatants from this centrifugation are referred to as "cytosol". […] (^3 H)-P4 binding to uterus PR was assayed on immature female rats according to Jordan et al (16).
(§6) To study the binding of ALDO to kidney- MR without the competitive influence of the relatively more abundant GR, GR was removed with the specific ligand RU28362 (7).
The calculated Kd for type I sites in different conditions ranges between 0.4 and 1 nM (Table 1) which is at least eighty times higher than the affinity for type II sites.

[5] = biological target: T2, type I receptors (kidney MR) (Rattus norvegicus, UniProt P22199); assay: tracer binding (Scatchard) to kidney type I sites (MR); conditions: for nH, type I: Hill coefficient; for Q, type I: apparent number of sites
T2 construct: kidneys as a source of MR; from tissue; host or cells: kidney cytosol, adrenalectomized male Sprague-Dawley rats
T2 sequence (P22199 1-981): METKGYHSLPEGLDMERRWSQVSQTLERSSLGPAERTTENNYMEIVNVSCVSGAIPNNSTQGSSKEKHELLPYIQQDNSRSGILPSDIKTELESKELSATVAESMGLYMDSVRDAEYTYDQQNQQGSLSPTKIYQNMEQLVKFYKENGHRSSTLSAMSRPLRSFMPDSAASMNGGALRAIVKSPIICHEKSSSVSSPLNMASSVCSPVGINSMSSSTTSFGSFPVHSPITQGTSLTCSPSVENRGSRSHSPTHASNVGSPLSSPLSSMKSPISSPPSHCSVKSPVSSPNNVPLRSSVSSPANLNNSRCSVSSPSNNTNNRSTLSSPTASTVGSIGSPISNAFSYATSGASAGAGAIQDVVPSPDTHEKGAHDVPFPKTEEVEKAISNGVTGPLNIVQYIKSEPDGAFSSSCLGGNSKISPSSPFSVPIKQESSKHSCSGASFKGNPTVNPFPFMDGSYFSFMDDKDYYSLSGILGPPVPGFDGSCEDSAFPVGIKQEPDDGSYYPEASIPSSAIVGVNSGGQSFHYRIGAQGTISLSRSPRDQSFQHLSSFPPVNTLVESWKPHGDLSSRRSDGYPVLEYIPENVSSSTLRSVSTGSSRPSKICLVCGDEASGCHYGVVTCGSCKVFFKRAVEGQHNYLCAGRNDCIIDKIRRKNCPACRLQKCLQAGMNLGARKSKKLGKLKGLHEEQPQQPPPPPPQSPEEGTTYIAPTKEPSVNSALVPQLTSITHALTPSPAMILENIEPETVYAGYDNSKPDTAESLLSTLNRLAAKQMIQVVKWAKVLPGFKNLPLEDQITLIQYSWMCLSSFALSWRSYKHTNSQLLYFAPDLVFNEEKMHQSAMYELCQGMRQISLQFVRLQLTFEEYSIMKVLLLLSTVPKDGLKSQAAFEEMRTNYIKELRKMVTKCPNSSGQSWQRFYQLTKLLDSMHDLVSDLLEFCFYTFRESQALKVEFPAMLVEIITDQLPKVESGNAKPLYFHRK
Procedure: as §5, with “(16). […]” for “(16).”
as §6

hippocampus type I MR = conditions: ref (9); cited from earlier work
[6] = tested on: inoperable cases of nonpituitary Cushing's syndrome; conditions: cited from earlier work
PR = conditions: background; cited from earlier work
[7] = in the presence of 2.5 μM 21OH-6OP
[8] = in the presence of 10 μM RU-28362

CC(=O)[C@H]1CC[C@H]2[C@@H]3C[C@H]4OC[C@@]5(CCC(=O)C=C45)[C@H]3CC[C@]12C [6OP, 6,19-oxidoprogesterone]
GC response: liver glycogen (liver glycogen; FIG. 3-A): neither 6OP nor 21OH-6OP evoke these responses | antagonism of TAT induction by B (in words) ([1]; 100 nM B): significantly different (P<0.01) from the basal activity | antagonism of TAT induction by DXM (in words) ([1]; 100 nM DXM): significantly different (P<0.01) from the basal activity | TAT induction (in words) ([2]; FIGS. 3-B and 4 (hatched bars), no agonist added): neither 6OP nor 21OH-6OP evoke these responses; also recorded: Neither 6OP nor 21OH-6OP facilitate TAT induction | GC properties ([2]; preliminary studies, test not specified): lack of GC properties | Na^+ -retaining (MC) properties (in words) ([3]; FIG. 3-C): weak Na^+ -retainer; also recorded: then loosing activity at still higher doses | maximum Na^+ retention ([3]; maximum of parabolic dose-response, at high doses): 50% | Na^+ retaining properties [4]: exhibited practically no Na^+ retaining properties

C[C@]12CCC(=O)C=C1CC[C@@H]1[C@@H]2[C@@H](O)C[C@]2(C=O)[C@@H](C(=O)CO)CC[C@@H]12 [(^3 H)-ALDO, Aldosterone]
nH, type II (type II sites (GR); Hill coefficient): 0.86 | Q, type II (type II sites (GR); apparent number of sites): 2900 fmol/mg | Kd (type II sites (GR)): 64.4 nM | nH, type I [5, 7]: 0.88 | nH, type I [5, 8]: 0.90 | nH, type I ([5]; no competitor): 0.97 | Q, type I [5, 7]: 110 fmol/mg | Q, type I [5, 8]: 124.4 fmol/mg | Q, type I ([5]; no competitor): 104 fmol/mg

COC(=O)[C@@H]1CC2=CC(=O)CC[C@]2(C)[C@H]2CC[C@@]3(C)[C@@H]([C@@H]4C[C@@H]4[C@@]34CCC(=O)O4)[C@H]12 [(^3 H)-ZK91587]
binding to hippocampus type I MR (hippocampus type I MR): hippocampus type I MR (9) | nH, type I ([5]; no competitor): 0.91 | Q, type I ([5]; no competitor): 98 fmol/mg | Kd ([5]; no competitor): 0.42 nM

C[C@]12C[C@H](O)[C@H]3[C@@H](CCC4=CC(=O)CC[C@@]43C)[C@@H]1CC[C@@H]2C(=O)CO [B, corticosterone]
liver glycogen deposits (liver glycogen): between three and four times more | increase of TAT activity [2]: between five and six times

C[C@@H]1C[C@H]2[C@@H]3CCC4=CC(=O)C=C[C@]4(C)[C@@]3(F)[C@@H](O)C[C@]2(C)[C@@]1(O)C(=O)CO [DXM, dexamethasone]
liver glycogen deposits (liver glycogen): between three and four times more | increase of TAT activity [2]: between five and six times

CC#C[C@]1(O)CC[C@H]2[C@@H]3C=C(C)C4=CC(=O)C=C[C@]4(C)[C@H]3[C@@H](O)C[C@@]21C [RU28862]
reduction of (^3 H)-ALDO Scatchard plot to type I sites ([5]; 1.0 μM RU28862, selective MR ligand ZK91587): reduces the plot to a single line corresponding to type I sites

CC#C[C@]1(O)CC[C@H]2[C@@H]3CCC4=CC(=O)CCC4=C3[C@@H](c3ccc(N(C)C)cc3)C[C@@]21C [RU38486]
dose needed for effectiveness [6]: 20-800 mg per day | antiprogestin activity (PR): strong antiprogestin activity
